Consider 24 molecules from patent publication US10316017B2, “COT modulators and methods of use thereof” (Gilead Sciences, Inc., priority 2015, dated 2019).

Where only a bound is given, the exact number is not on record here.

One test deals with T1, human Cot catalytic domain (30-397 amino acids) (Homo sapiens, UniProt P41279).
T1 construct: Purified recombinant human Cot catalytic domain (30-397 amino acids) was purchased from Cama Biosciences; purchased Cama Biosciences (so in the source)
T1 sequence (P41279 30-397): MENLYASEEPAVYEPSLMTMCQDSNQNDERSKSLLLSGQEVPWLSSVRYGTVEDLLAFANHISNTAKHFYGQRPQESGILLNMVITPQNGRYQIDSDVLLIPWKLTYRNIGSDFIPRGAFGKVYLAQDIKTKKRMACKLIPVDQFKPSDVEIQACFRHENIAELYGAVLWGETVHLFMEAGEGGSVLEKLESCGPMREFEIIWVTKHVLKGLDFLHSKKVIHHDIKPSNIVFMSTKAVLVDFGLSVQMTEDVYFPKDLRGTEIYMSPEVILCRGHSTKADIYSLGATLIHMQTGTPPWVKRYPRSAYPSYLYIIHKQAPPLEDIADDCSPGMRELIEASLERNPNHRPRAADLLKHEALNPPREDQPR
Put plainly: High Throughput Cot Biochemical Assay (KinEASE TR-FRET). The settings on record: Cot KinEASE TR-FRET, 400 μM ATP; read-out: IC50 HTRF. The method, then: Example 61: High Throughput Cot Biochemical Assay
In this assay, Cot-catalyzes the phosphorylation of a XL665-labeled peptide substrate. Europium conjugated phospho-tyrosine specific antibody binds the resulting phosphorylated peptide. […] Purified recombinant human Cot catalytic domain (30-397 amino acids) was purchased from Cama Biosciences. […] The standard 5 μL reaction mixture contained 400 μM ATP, 1 μM STK3 peptide, 5 nM of Cot in reaction buffer (10 mM MOPS, pH 7.0, 0.02% NaN3, 0.5 mg/mL BSA, 10 mM MgOAc, 1 mM DTT, 0.025% NP-40, 1.5% glycerol) and 0.1% DMSO.
Take `COC(=O)c1cccc([C@@H](c2cn(C3CCN(C(C)(C)C)CC3)nn2)N(C)c2cc(Cl)c3ncc(C#N)c(Nc4ccc(F)c(Cl)c4)c3c2)c1` [Compound 39]: the IC50 is 1990 nM. As to `N#Cc1cnc2c(Cl)cc(N[C@@H](c3ccccc3)c3cn(C4CC5(CNC5)C4)nn3)cc2c1Nc1ccc(F)c(Cl)c1` [Example 775, (S)-6-(((1-(2-azaspiro[3.3]heptan-6-yl)-1H-1,2,3-triazol-4-yl)(phenyl)methyl)amino)-8-chloro-4-((3-chloro-4-fluorophenyl)amino)quinoline-3-carbonitrile], the IC50 was 5 nM.

As to `N#Cc1cnc2c(Cl)cc(NC(c3ccc(OC(F)(F)F)cc3)c3cn(C4CCNCC4)nn3)cc2c1Nc1ccc(F)c(Cl)c1` (stereo not drawn) [Example 897, 8-chloro-4-((3-chloro-4-fluorophenyl)amino)-6-(((1-(piperidin-4-yl)-1H-1,2,3-triazol-4-yl)(4-(trifluoromethoxy)phenyl)methyl)amino)quinoline-3-carbonitrile], the IC50 was determined as 59 nM.

Take `CCN1CCC(n2cc(C(Nc3cc(Cl)c4ncc(C#N)c(Nc5ccc(F)c(Cl)c5)c4c3)c3ccc(OC(F)(F)F)cc3)nn2)CC1` (stereo not drawn) [Example 898, 8-chloro-4-((3-chloro-4-fluorophenyl)amino)-6-(((1-(1-ethylpiperidin-4-yl)-1H-1,2,3-triazol-4-yl)(4-(trifluoromethoxy)phenyl)methyl)amino)quinoline-3-carbonitrile]: the IC50 is 40 nM.

Take `CC1(C)C[C@H](n2cc([C@H](Nc3cc(Cl)c4ncc(C#N)c(Nc5ccc(F)c(Cl)c5)c4c3)c3ccccc3)nn2)CCN1` [Example 789, 8-chloro-4-((3-chloro-4-fluorophenyl)amino)-6-(((R)-(1-((R)-2,2-dimethylpiperidin-4-yl)-1H-1,2,3-triazol-4-yl)(phenyl)methyl)amino) quinoline-3-carbonitrile]: the IC50 was 657 nM. The same measure, in the same setting: in the case of `CCN1CCC(n2cc(C(Nc3ccc4ncc(C#N)c(Nc5ccc(F)c(Cl)c5)c4c3)c3ccc(F)cc3)nn2)CC1` (stereo not drawn) [Example 832, 4-((3-chloro-4-fluorophenyl)amino)-6-(((1-(1-ethylpiperidin-4-yl)-1H-1,2,3-triazol-4-yl)(4-fluorophenyl)methyl)amino) quinoline-3-carbonitrile] it was 9 nM; in that of `N#Cc1cnc2ccc(NC(c3ccc(F)cc3)c3cn(C4CCN(C(=O)OCc5ccccc5)CC4)nn3)cc2c1Nc1ccc(F)c(Cl)c1` (stereo not drawn) [Example 834, benzyl 4-(4-(((4-((3-chloro-4-fluorophenyl)amino)-3-cyanoquinolin-6-yl)amino)(4-fluorophenyl)methyl)-1H-1,2,3-triazol-1-yl)piperidine-1-carboxylate], 756 nM; in that of `Cc1ccc(C(Nc2cc(Cl)c3ncc(C#N)c(Nc4ccc(F)c(Cl)c4)c3c2)c2cn(C3CCNCC3)nn2)cc1` (stereo not drawn) [Example 916, 8-chloro-4-((3-chloro-4-fluorophenyl)amino)-6-(((1-(piperidin-4-yl)-1H-1,2,3-triazol-4-yl)(p-tolyl)methyl)amino) quinoline-3-carbonitrile], 48 nM. Still for that read-out and setting: in the case of `N#Cc1cnc2c(Cl)cc(NC(c3ccc(Cl)cc3)c3cn([C@@H]4CCNC4)nn3)cc2c1Nc1ccc(F)c(Cl)c1` (stereo partly drawn) [Example 867, 8-chloro-4-((3-chloro-4-fluorophenyl)amino)-6-(((4-chlorophenyl)(1-((R)-pyrrolidin-3-yl)-1H-1,2,3-triazol-4-yl)methyl)amino)quinoline-3-carbonitrile] it was 46 nM; in that of `Cn1ccc(C(Nc2cc(Cl)c3ncc(C#N)c(Nc4ccc(F)c(Cl)c4)c3c2)c2ccc(F)cc2)n1` (stereo not drawn) [Example 846, 8-chloro-4-((3-chloro-4-fluorophenyl)amino)-6-(((4-fluorophenyl)(1-methy-1-1H-pyrazol-3-yl)methyl)amino)quinoline-3-carbonitrile], > 10000 nM; in that of `C#CC(c1ccc(Cl)cc1)N(c1cc(Cl)c2ncc(C#N)c(Nc3cncc(Cl)c3)c2c1)C(c1ccc(Cl)cc1)c1cn(C2CCN(C(C)(C)C)CC2)nn1` (stereo not drawn) [Example 725, 6-(((1-(1-(tert-butyl)piperidin-4-yl)-1H-1,2,3-triazol-4-yl)(4-chlorophenyl)methyl)(1-(4-chlorophenyl)prop-2-yn-1-yl)amino)-8-chloro-4-((5-chloropyridin-3-yl)amino)quinoline-3-carbonitrile], 338 nM. The same measure, in the same setting: in the case of `N#Cc1cnc2c(Cl)cc(NC(c3cccc(F)c3)c3cn(C4CCN(C(=O)OCc5ccccc5)CC4)nn3)cc2c1Nc1ccc(F)c(Cl)c1` (stereo not drawn) [Example 905, benzyl 4-(4-(((8-chloro-4-((3-chloro-4-fluorophenyl)amino)-3-cyanoquinolin-6-yl)amino)(3-fluorophenyl)methyl)-1H-1,2,3-triazol-1-yl)piperidine-1-carboxylate] it was > 1000 nM. Take `Cn1cc(C(Nc2cc(Cl)c3ncc(C#N)c(Nc4ccc(F)c(Cl)c4)c3c2)c2ccc(F)c(F)c2)nn1` (stereo not drawn) [Example 891, 8-chloro-4-((3-chloro-4-fluorophenyl)amino)-6-(((3,4-difluorophenyl)(1-methyl-1H-1,2,3-triazol-4-yl)methyl)amino)quinoline-3-carbonitrile]: the IC50 is 30 nM. The same measure, in the same setting: in the case of `Cc1cc2ncc(C#N)c(Nc3ccc(F)c(Cl)c3)c2cc1NC(c1ccc(F)cc1)c1cn(C)nn1` (stereo not drawn) [Example 773, 4-((3-chloro-4-fluorophenyl)amino)-6-(((4-fluorophenyl)(1-methyl-1H-1,2,3-triazol-4-yl)methyl)amino)-7-methylquinoline-3-carbonitrile] it was 1860 nM. For `CC(=O)N1CCC(n2cc(C(Nc3cc(Cl)c4ncc(C#N)c(Nc5ccc(F)c(Cl)c5)c4c3)c3ccc(F)cc3)nn2)CC1` (stereo not drawn) [Example 844, 6-(((1-(1-acetylpiperidin-4-yl)-1H-1,2,3-triazol-4-yl)(4-fluorophenyl)methyl)amino)-8-chloro-4-((3-chloro-4-fluorophenyl)amino)quinoline-3-carbonitrile], the IC50 came to 48 nM. The same measure, in the same setting: in the case of `N#Cc1cnc2c(Cl)cc(NC(c3ccc(F)cc3)c3cn([C@@H]4CCNC4)nn3)cc2c1Nc1ccc(F)c(Cl)c1` (stereo partly drawn) [Example 864, 8-chloro-4-((3-chloro-4-fluorophenyl)amino)-6-(((4-fluorophenyl)(1-((R)-pyrrolidin-3-yl)-1H-1,2,3-triazol-4-yl)methyl)amino)quinoline-3-carbonitrile] it was 22 nM; in that of `N#Cc1cnc2c(Cl)cc(NC(c3ccccc3)c3cn(CC(=O)O)nn3)cc2c1Nc1ccc(F)c(Cl)c1` (stereo not drawn) [Example 912, 2-(4-(((8-chloro-4-((3-chloro-4-fluorophenyl)amino)-3-cyanoquinolin-6-yl)amino)(phenyl)methyl)-1H-1,2,3-triazol-1-yl)acetic acid], 60 nM; in that of `CC1(C)CNCCC1n1cc(C(Nc2cc(Cl)c3ncc(C#N)c(Nc4ccc(F)c(Cl)c4)c3c2)c2ccc(F)cc2)nn1` (stereo not drawn) [Example 840, 8-chloro-4-((3-chloro-4-fluorophenyl)amino)-6-(((1-(3,3-dimethylpiperidin-4-yl)-1H-1,2,3-triazol-4-yl)(4-fluorophenyl)methyl)amino) quinoline-3-carbonitrile], 84 nM. For the molecule `CC(C)(C)N1CCC(n2cc([C@@H](Nc3cc(Cl)c4ncc(C#N)c(Nc5cncc(F)c5)c4c3)c3ccc(Cl)cc3)nn2)CC1` [Example 771, (S)-6-(((1-(1-(tert-butyl)piperidin-4-yl)-1H-1,2,3-triazol-4-yl)(4-chlorophenyl)methyl)amino)-8-chloro-4-((5-fluoropyridin-3-yl)amino)quinoline-3-carbonitrile], the IC50 was determined as 93 nM. Still for that read-out and setting: in the case of `CCN1CCC(n2cc(C(Nc3ccc4ncc(C#N)c(Nc5ccc(F)c(Cl)c5)c4c3)c3ccc(F)cc3)nn2)CC1` (stereo not drawn) [Example 827, 4-((3-chloro-4-fluorophenyl)amino)-6-(((1-(1-ethylpiperidin-4-yl)-1H-1,2,3-triazol-4-yl)(4-fluorophenyl)methyl)amino) quinoline-3-carbonitrile] it was 34 nM. On the same count and under the same terms, in the case of `Cc1cc(F)ccc1C(Nc1cc(Cl)c2ncc(C#N)c(Nc3ccc(F)c(Cl)c3)c2c1)c1cn(C2CCN(C(=O)OCc3ccccc3)CC2)nn1` (stereo not drawn) [Example 883, benzyl 4-(4-(((8-chloro-4-((3-chloro-4-fluorophenyl)amino)-3-cyanoquinolin-6-yl)amino)(4-fluoro-2-methylphenyl)methyl)-1H-1,2,3-triazol-1-yl) piperidine-1-carboxylate] it was 6680 nM; in that of `N#Cc1cnc2c(Cl)cc(N[C@@H](c3ccc(F)cc3)c3cn(C4COC4)nn3)cc2c1Nc1ccc(F)c(Cl)c1` [Example 810, (S)-8-chloro-4-((3-chloro-4-fluorophenyl)amino)-6-(((4-fluorophenyl)(1-(oxetan-3-yl)-1H-1,2,3-triazol-4-yl)methyl)amino)quinoline-3-carbonitrile], 12 nM; in that of `N#Cc1cnc2c(Cl)cc(NC(c3ccc(Cl)cc3)c3cn([C@H]4CCN(C(=O)OCc5ccccc5)C4)nn3)cc2c1Nc1ccc(F)c(Cl)c1` (stereo partly drawn) [Example 878, benzyl (3S)-3-(4-(((8-chloro-4-((3-chloro-4-fluorophenyl)amino)-3-cyanoquinolin-6-yl)amino)(4-chlorophenyl)methyl)-1H-1,2,3-triazol-1-yl)pyrrolidine-1-carboxylate], 7700 nM.

Still in this test, the particulars now being: first value of the cell IC50/EC50; 400 μM ATP, 5 nM Cot; read-out: IC50/EC50 [nM]: IC50 (Cot).
Consider `CCN1CCC(n2cc([C@H](C)Nc3cc(Cl)c4ncc(C#N)c(Nc5ccc(F)c(Cl)c5)c4c3)nn2)CC1` [Comparative Example 2, reference compound], for which the IC50 is 62 nM.
